Measurements taken from ChEMBL document CHEMBL5055672, “Design, Synthesis, Biological Evaluation, and Computational Studies of Novel Fluorinated Candidates as PI3K Inhibitors: Targeting Fluorophilic Binding Sites” (J Med Chem, 2021).

What was measured:
[1] = test system: CCRF-CEM; assay: Cytotoxicity against human CCRF-CEM cells assessed as growth inhibition at 10 uM after 48 hrs by sulforhodamine B assay; type: functional; conditions: read-out: GI
[2] = test system: HL-60(TB); assay: Cytotoxicity against human HL-60(TB) cells assessed as growth inhibition at 10 uM after 48 hrs by sulforhodamine B assay; type: functional; conditions: read-out: GI
[3] = test system: K562; assay: Cytotoxicity against human K562 cells assessed as growth inhibition at 10 uM after 48 hrs by sulforhodamine B assay; type: functional; conditions: read-out: GI
[4] = test system: MOLT-4; assay: Cytotoxicity against human MOLT-4 cells assessed as growth inhibition at 10 uM after 48 hrs by sulforhodamine B assay; type: functional; conditions: read-out: GI
[5] = test system: RPMI-8226; assay: Cytotoxicity against human RPMI-8226 cells assessed as growth inhibition at 10 uM after 48 hrs by sulforhodamine B assay; type: functional; conditions: read-out: GI
[6] = test system: SR; assay: Cytotoxicity against human SR cells assessed as growth inhibition at 10 uM after 48 hrs by sulforhodamine B assay; type: functional; conditions: read-out: GI
[7] = test system: A549; assay: Cytotoxicity against human A549 cells assessed as growth inhibition at 10 uM after 48 hrs by sulforhodamine B assay; type: functional; conditions: read-out: GI
[8] = test system: NCI-H226; assay: Cytotoxicity against human NCI-H226 cells assessed as growth inhibition at 10 uM after 48 hrs by sulforhodamine B assay; type: functional; conditions: read-out: GI
[9] = test system: NCI-H522; assay: Cytotoxicity against human NCI-H522 cells assessed as growth inhibition at 10 uM after 48 hrs by sulforhodamine B assay; type: functional; conditions: read-out: GI
[10] = test system: HCC 2998; assay: Cytotoxicity against human HCC 2998 cells assessed as growth inhibition at 10 uM after 48 hrs by sulforhodamine B assay; type: functional; conditions: read-out: GI
[11] = test system: HCT-15; assay: Cytotoxicity against human HCT-15 cells assessed as growth inhibition at 10 uM after 48 hrs by sulforhodamine B assay; type: functional; conditions: read-out: GI
[12] = test system: HT-29; assay: Cytotoxicity against human HT-29 cells assessed as growth inhibition at 10 uM after 48 hrs by sulforhodamine B assay; type: functional; conditions: read-out: GI
[13] = test system: KM12; assay: Cytotoxicity against human KM12 cells assessed as growth inhibition at 10 uM after 48 hrs by sulforhodamine B assay; type: functional; conditions: read-out: GI
[14] = test system: LOX IMVI; assay: Cytotoxicity against human LOX IMVI cells assessed as growth inhibition at 10 uM after 48 hrs by sulforhodamine B assay; type: functional; conditions: read-out: GI
[15] = test system: M14; assay: Cytotoxicity against human M14 cells assessed as growth inhibition at 10 uM after 48 hrs by sulforhodamine B assay; type: functional; conditions: read-out: GI
[16] = test system: UACC-62; assay: Cytotoxicity against human UACC-62 cells assessed as growth inhibition at 10 uM after 48 hrs by sulforhodamine B assay; type: functional; conditions: read-out: GI
[17] = test system: OVCAR-4; assay: Cytotoxicity against human OVCAR-4 cells assessed as growth inhibition at 10 uM after 48 hrs by sulforhodamine B assay; type: functional; conditions: read-out: GI
[18] = test system: NCI/ADR-RES; assay: Cytotoxicity against human NCI-ADR-RES cells assessed as growth inhibition at 10 uM after 48 hrs by sulforhodamine B assay; type: functional; conditions: read-out: GI
[19] = test system: ACHN; assay: Cytotoxicity against human ACHN cells assessed as growth inhibition at 10 uM after 48 hrs by sulforhodamine B assay; type: functional; conditions: read-out: GI
[20] = test system: CAKI-1; assay: Cytotoxicity against human CAKI-1 cells assessed as growth inhibition at 10 uM after 48 hrs by sulforhodamine B assay; type: functional; conditions: read-out: GI
[21] = test system: SN12C; assay: Cytotoxicity against human SN12C cells assessed as growth inhibition at 10 uM after 48 hrs by sulforhodamine B assay; type: functional; conditions: read-out: GI
[22] = test system: UO-31; assay: Cytotoxicity against human UO-31 cells assessed as growth inhibition at 10 uM after 48 hrs by sulforhodamine B assay; type: functional; conditions: read-out: GI
[23] = test system: DU-145; assay: Cytotoxicity against human DU-145 cells assessed as growth inhibition at 10 uM after 48 hrs by sulforhodamine B assay; type: functional; conditions: read-out: GI
[24] = test system: MCF7; assay: Cytotoxicity against human MCF7 cells assessed as growth inhibition at 10 uM after 48 hrs by sulforhodamine B assay; type: functional; conditions: read-out: GI
[25] = test system: T47D; assay: Cytotoxicity against human T47D cells assessed as growth inhibition at 10 uM after 48 hrs by sulforhodamine B assay; type: functional; conditions: read-out: GI
[26] = test system: MCF7; assay: Antiproliferative activity against human MCF7 cells assessed as inhibition of cell growth incubated for 48 hrs by MTT assay; type: functional, cell-based; conditions: MCF7, 48 h
[27] = test system: MCF-10A; assay: Cytotoxicity against human MCF10A cells assessed as inhibition of cell growth incubated for 48 hrs by MTT assay; type: cell-based
[28] = Selectivity index, ratio of IC50 for human MCF-10A cells to IC50 for human MCF7 cells; type: toxicity; conditions: MCF-10A cells versus MCF7 cells, read-out: Ratio IC50
[29] = target: Phosphatidylinositol 4,5-bisphosphate 3-kinase catalytic subunit alpha isoform (Homo sapiens, UniProt P42336); assay: Inhibition of PI3Kalpha (unknown origin) using PIP2 as substrate preincubated for 10 mins followed by substrate addition and measured after 1 hr by ELISA
[30] = test system: MCF7; assay: Induction of cell cycle arrest in human MCF7 cells assessed as accumulation of cells at G phase at IC50 concentration by Propidium iodide staining based flow cytometric analysis (reference value: 1.76%); type: functional
[31] = test system: MCF7; assay: Induction of cell cycle arrest in human MCF7 cells assessed as accumulation of cells at G1 phase at IC50 concentration by Propidium iodide staining based flow cytometric analysis (reference value: 61.45%); type: functional
[32] = test system: MCF7; assay: Induction of cell cycle arrest in human MCF7 cells assessed as accumulation of cells at G2/M phase at IC50 concentration by Propidium iodide staining based flow cytometric analysis (reference value: 10.94%); type: functional
[33] = test system: MCF7; assay: Induction of cell cycle arrest in human MCF7 cells assessed as accumulation of cells at S phase at IC50 concentration by Propidium iodide staining based flow cytometric analysis (reference value: 27.61%); type: functional
[34] = test system: MCF7; assay: Induction of apoptosis in human MCF7 cells assessed as early apoptotic cells at 2.25 uM after 48 hrs by annexin V-FITC/propidium iodide staining based flow cytometric analysis (reference value: 0.36%); type: functional
[35] = test system: MCF7; assay: Induction of apoptosis in human MCF7 cells assessed as late apoptotic cells at 2.25 uM after 48 hrs by annexin V-FITC/propidium iodide staining based flow cytometric analysis (reference value: 0.14%); type: functional
[36] = test system: MCF7; assay: Induction of apoptosis in human MCF7 cells assessed as necrotic cells at 2.25 uM after 48 hrs by annexin V-FITC/propidium iodide staining based flow cytometric analysis (reference value: 1.26%); type: functional
[37] = target: Phosphatidylinositol 4,5-bisphosphate 3-kinase catalytic subunit beta isoform (Homo sapiens, UniProt P42338); assay: Inhibition of PI3Kbeta (unknown origin) using PIP2 as substrate preincubated for 10 mins followed by substrate addition and measured after 1 hr by ELISA
[38] = target: T1, Phosphatidylinositol 4,5-bisphosphate 3-kinase catalytic subunit delta isoform (Homo sapiens, UniProt O00329); assay: Inhibition of PI3Kdelta (unknown origin) using PIP2 as substrate preincubated for 10 mins followed by substrate addition and measured after 1 hr by ELISA
T1 sequence (O00329 whole entry): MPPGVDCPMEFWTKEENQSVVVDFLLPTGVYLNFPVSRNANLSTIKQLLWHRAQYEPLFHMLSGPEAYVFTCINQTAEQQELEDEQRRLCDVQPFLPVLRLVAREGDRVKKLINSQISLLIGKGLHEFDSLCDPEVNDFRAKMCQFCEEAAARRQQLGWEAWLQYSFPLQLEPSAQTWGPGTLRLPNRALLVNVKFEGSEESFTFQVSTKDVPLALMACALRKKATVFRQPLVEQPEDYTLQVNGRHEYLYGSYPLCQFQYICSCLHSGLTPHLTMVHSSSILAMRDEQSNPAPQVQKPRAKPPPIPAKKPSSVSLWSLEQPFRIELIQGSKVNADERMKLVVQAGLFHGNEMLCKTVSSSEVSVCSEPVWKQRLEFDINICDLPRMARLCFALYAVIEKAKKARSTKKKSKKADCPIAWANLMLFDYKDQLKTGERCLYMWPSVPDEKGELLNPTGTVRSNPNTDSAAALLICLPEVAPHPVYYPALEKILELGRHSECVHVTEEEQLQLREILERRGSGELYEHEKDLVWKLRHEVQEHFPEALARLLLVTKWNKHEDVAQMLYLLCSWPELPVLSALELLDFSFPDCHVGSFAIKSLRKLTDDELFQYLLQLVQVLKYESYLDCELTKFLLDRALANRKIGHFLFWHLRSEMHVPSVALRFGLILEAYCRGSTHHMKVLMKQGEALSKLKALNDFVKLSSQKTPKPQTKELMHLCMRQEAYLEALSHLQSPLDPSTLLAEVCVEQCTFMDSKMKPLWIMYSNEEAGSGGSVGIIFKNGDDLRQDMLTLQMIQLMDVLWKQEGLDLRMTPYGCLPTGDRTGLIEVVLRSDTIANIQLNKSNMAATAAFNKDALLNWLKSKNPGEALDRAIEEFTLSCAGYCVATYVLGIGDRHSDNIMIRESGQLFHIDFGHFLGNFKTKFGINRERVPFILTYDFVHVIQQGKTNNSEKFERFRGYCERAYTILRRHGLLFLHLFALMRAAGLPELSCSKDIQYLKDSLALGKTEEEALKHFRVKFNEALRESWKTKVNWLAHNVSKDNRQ

Phosphatidylinositol 4,5-bisphosphate 3-kinase catalytic subunit beta isoform, sequence (P42338 whole entry, canonical isoform): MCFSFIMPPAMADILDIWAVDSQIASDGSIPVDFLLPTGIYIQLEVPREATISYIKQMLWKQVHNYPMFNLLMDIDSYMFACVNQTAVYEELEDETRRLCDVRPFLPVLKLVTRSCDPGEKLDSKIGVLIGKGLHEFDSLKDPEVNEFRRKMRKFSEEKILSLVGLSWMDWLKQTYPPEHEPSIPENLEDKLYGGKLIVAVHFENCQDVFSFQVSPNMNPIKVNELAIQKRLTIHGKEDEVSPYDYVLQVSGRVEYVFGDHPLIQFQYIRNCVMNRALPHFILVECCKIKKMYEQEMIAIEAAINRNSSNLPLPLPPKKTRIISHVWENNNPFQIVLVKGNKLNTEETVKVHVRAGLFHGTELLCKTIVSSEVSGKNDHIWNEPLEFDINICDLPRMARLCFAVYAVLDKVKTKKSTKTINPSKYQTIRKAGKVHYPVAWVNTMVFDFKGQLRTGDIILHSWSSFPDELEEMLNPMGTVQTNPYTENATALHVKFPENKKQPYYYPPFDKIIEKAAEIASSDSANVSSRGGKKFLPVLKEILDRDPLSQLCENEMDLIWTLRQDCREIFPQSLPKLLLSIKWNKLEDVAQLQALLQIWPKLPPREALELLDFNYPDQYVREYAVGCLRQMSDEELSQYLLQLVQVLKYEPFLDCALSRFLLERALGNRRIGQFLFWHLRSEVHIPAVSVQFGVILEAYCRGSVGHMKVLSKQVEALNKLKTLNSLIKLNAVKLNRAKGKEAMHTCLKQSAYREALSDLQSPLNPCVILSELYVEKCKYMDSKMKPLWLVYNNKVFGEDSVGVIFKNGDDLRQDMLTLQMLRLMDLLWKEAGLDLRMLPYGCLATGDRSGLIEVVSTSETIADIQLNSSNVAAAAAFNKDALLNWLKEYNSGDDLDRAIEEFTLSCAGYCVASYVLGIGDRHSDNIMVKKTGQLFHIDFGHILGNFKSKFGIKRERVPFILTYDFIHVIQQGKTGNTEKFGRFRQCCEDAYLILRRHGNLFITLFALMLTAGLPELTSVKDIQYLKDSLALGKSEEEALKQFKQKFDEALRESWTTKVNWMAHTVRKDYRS
Phosphatidylinositol 4,5-bisphosphate 3-kinase catalytic subunit alpha isoform, sequence (P42336 whole entry, canonical isoform): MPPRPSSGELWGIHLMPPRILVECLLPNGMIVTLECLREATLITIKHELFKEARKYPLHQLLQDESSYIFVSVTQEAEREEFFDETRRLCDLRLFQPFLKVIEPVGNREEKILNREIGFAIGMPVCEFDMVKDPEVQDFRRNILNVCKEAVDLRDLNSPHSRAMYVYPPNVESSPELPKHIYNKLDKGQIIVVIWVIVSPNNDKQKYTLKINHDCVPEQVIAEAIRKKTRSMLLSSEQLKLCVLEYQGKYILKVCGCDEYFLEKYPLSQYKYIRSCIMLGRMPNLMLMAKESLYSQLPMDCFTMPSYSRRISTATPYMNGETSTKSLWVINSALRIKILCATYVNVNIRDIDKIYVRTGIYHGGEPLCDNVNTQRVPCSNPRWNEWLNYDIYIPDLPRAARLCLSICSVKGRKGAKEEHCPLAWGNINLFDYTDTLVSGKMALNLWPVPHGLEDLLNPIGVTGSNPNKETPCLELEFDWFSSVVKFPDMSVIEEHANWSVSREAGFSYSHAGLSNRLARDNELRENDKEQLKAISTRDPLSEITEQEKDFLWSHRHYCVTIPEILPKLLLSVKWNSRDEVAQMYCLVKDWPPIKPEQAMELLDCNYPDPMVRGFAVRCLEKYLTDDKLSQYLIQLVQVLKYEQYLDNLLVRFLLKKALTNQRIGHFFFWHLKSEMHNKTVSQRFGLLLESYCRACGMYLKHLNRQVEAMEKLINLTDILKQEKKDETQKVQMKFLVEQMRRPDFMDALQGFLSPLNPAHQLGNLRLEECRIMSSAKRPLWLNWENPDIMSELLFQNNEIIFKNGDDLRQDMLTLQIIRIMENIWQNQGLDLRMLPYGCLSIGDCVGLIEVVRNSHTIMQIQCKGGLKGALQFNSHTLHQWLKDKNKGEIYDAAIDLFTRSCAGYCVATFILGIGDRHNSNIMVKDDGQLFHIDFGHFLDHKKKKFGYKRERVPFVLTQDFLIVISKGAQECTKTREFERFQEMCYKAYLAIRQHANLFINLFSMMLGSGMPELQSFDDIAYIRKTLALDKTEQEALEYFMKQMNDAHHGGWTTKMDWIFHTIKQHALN

For `FC(F)(F)COc1ccc(-c2nnc(Nc3ccccc3)s2)cc1`, the inhibition of growth at 10 µM [1] was 19.2%, the inhibition of growth at 10 µM [2] was 12.6% and the inhibition of growth at 10 µM [3] was 57.4%. It also gave an inhibition of growth at 10 µM [4] of 24.1%, an inhibition of growth at 10 µM [5] of 13.4% and an inhibition of growth at 10 µM [6] of 39.3%. The inhibition of growth at 10 µM [7] was 15%, the inhibition of growth at 10 µM [8] was 20.5% and the inhibition of growth at 10 µM [9] was 36.7%. The inhibition of growth at 10 µM [10] was 27.5%, the inhibition of growth at 10 µM [11] was 50.9% and the inhibition of growth at 10 µM [12] was 45.7%. It also gave an inhibition of growth at 10 µM [13] of 57.2%, an inhibition of growth at 10 µM [14] of 18.8% and an inhibition of growth at 10 µM [15] of 12.8%. For the same molecule, the inhibition of growth at 10 µM [16] was 24.4%, the inhibition of growth at 10 µM [17] was 12.8% and the inhibition of growth at 10 µM [18] was 10.8%. The inhibition of growth at 10 µM [19] was 16.1%, the inhibition of growth at 10 µM [20] was 50% and the inhibition of growth at 10 µM [21] was 13.1%. It also gave an inhibition of growth at 10 µM [22] of 21.4%, an inhibition of growth at 10 µM [23] of 14.8% and an inhibition of growth at 10 µM [24] of 21.2%. For the same molecule, the inhibition of growth at 10 µM [25] was 27.7%, the IC50 [26] was 2.25 µM and the IC50 [27] was 38 µM. It also gave a selectivity ratio [28] of 16.9, an IC50 [29] of 19.4 µM and an Activity [30] of 26.96%. For the same molecule, the Activity [31] was 66.34%, the Activity [32] was 4.55% and the Activity [33] was 29.11%. For the same molecule, the Activity [34] was 4.15%, the Activity [35] was 13.09% and the Activity [36] was 9.72%. The IC50 [37] was 30.7 µM and the IC50 [38] was 73.7 µM.
